Measurements reported in patent publication US20130059874A1, “SUBSTITUTED N-PHENYL SPIROLACTAM BIPYRROLIDINES, PREPARATION AND THERAPEUTIC USE THEREOF” (SANOFI, priority 2010, published 2013).
Structures can show the parent of a compound that is named as a salt.

Target: T1, rhesus (Macacca Mulatta) H3 receptor (Macaca mulatta, UniProt Q865E1)
T1 construct: pcDNA5/FRT/TO (Invitrogen) containing the rhesus monkey (Macacca Mulatta) 445 amino acid H3 receptor
Assay: Rhesus H3 radioligand binding assay ([3H]-Methylhistamine displacement, WGA SPA beads)
Parameters: species or system rhesus monkey (Macacca Mulatta)
Details: [3H]-Methylhistamine 2 nM, rhesus H3 membranes, 25° C., 1 hour; Cheng-Prusoff
Method: Rhesus H3 membranes were prepared from the Flp-In T-REx 293 Cell Line (Invitrogen) stably transfected with pcDNA5/FRT/TO (Invitrogen) containing the rhesus monkey (Macacca Mulatta) 445 amino acid H3 receptor. (Genbank #AY231164). Stably transfected cultures were amplified in tissue culture flasks by standard tissue culture methods and induced to express rhesus H3 by exposure to 500 ng/ml tetracycline (Cellgro) for 24 hours. After induction, cells were dissociated from flasks utilizing Cell Stripper (Cellgro). Cells were centrifuged (1 K×g, 5 min) and pellet frozen in an ethanol-dry ice bath to disrupt cell membranes. Frozen cell pellet was re-suspended in 5 mM HEPES (pH 7.4, Invitrogen) at 10ml/1000 cm2 of harvested cells. The cell suspension was drawn through an 18 gauge needle (2-3×) followed by a 23 gauge needle (2-3×) to further disrupt cell membranes. The cell suspension was centrifuged (40K×g, 30 min). Cell membrane pellet was re-suspended in 5 mM HEPES (pH 7.4, Invitrogen) at a final protein concentration of 10 mg/ml. Rhesus H3 membranes were stored under liquid nitrogen prior to use in [3H]-Methylhistamine and GTPγS radioligand binding assays.
Rhesus H3 radioligand binding assay was performed using rhesus H3 receptor membranes (prepared as described above), [3H]-Methylhistamine (Perkin Elmer) and WGA SPA beads (wheat germ agglutinin scintillation proximity assay) beads (Amersham). The assay was performed in 96-well Opti-Plates (Packard). Each reaction contained 50 μl rhesus H3 membranes (20-30 μg total protein), 50 μl WGA SPA beads (0.1 μg) and 50 μl of 83Ci/mmol [^3H]-Methylhistamine (final concentration 2 nM) and 50 μl of tested compound. The compounds of this invention and/or vehicle were diluted with binding buffer from 10 mM DMSO stocks. Assay plates were sealed with TopSeal (Perkin Elmer) and mixed on shaker (25° C., 1 hour). Assay plates were read on TopCount scintillation counter (Packard). Results were analyzed by Hill transformation and Ki values were determined by Cheng-Prusoff equation.

T1 sequence (Q865E1 1-445): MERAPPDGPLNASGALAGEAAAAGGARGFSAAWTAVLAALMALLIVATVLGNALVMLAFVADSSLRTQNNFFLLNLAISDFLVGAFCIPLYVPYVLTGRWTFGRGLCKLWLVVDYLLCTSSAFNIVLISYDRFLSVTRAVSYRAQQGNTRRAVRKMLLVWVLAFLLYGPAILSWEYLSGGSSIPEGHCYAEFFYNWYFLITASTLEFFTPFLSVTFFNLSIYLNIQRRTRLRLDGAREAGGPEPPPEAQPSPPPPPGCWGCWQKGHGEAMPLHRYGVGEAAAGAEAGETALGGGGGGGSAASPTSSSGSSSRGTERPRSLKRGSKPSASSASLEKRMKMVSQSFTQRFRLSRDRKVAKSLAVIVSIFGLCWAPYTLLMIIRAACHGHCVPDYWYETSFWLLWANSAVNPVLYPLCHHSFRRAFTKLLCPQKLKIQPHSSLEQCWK

Row | SMILES | Ki
1 | Cc1cc(N2CC[C@H](N3CCC[C@@H]3C)C2)ccc1N1CCC2(CCC(O)CC2)C1=O (single isomer, unassigned) [Example 11] | 35 nM
2 | Cc1cc(N2CCC(N3CCC[C@@H]3C)CC2)ccc1N1CCC2(CCCCC2)C1=O [Example 1, 2-{2-Methyl-4-[4-((S)-2-methyl-pyrrolidin-1-yl)-piperidin-1-yl]-phenyl}-2-aza-spiro[4.5]decan-1-one trifluoroacetate] | 0.477 nM
3 | Cc1cc(N2CCC(N3CCC[C@@H]3C)CC2)ccc1N1CCCC2(CCCC2)C1=O [Example 2, 7-{2-Methyl-4-[4-((S)-2-methyl-pyrrolidin-1-yl)-piperidin-1-yl]-phenyl}-7-aza-spiro[4.5]decan-6-one trifluoro-acetic acid salt] | 12.7 nM
4 | C[C@H]1CCCN1[C@@H]1CCN(c2ccc(N3CCC4(CCCCC4)C3=O)c(N)c2)C1 [Example 6, 2-[2-Amino-4-((2S,3′R)-2-methyl-[1,3′]bipyrrolidinyl-1′-yl)-phenyl]-2-aza-spiro[4.5]decan-1-one trifluoro-acetic acid salt] | 35.8 nM
5 | C[C@H]1CCCN1[C@H]1CCN(c2ccc(N3CCC4(CCCCC4)C3=O)cc2)C1 [Example 7, 2-[4-((2S,3′S)-2-Methyl-[1,3′]bipyrrolidinyl-1′-yl)-phenyl]-2-aza-spiro[4.5]decan-1-one] | 6.44 nM

The remaining compounds from weak to strong by Ki, led by results:

Row | Ki | SMILES
6 | 58 nM | Cc1cc(N2CCC(N3CCC[C@@H]3C)CC2)ccc1N1CCC2(CCC(C(=O)O)CC2)C1=O (stereo partly drawn) [Example 5, 2-{2-Methyl-4-[4-((S)-2-methyl-pyrrolidin-1-yl)-piperidin-1-yl]-phenyl}-1-oxo-2-aza-spiro[4.5]decane-8-carboxylic acid]
7 | 41.6 nM | C[C@H]1CCCN1[C@H]1CCN(c2ccc(N3CCC4(CCCCC4)C3=O)c(F)c2)C1 [Example 9, 2-[2-Fluoro-4-((2S,3′S)-2-methyl-[1,3′]bipyrrolidinyl-1′-yl)-phenyl]-2-aza-spiro[4.5]decan-1-one]
8 | 30.7 nM | Cc1cc(N2CCC(N3CCC[C@@H]3C)CC2)ccc1N1CCC2(CCC(O)CC2)C1=O (stereo partly drawn) [Example 3, 8-Hydroxy-2-{2-methyl-4-[4-((S)-2-methyl-pyrrolidin-1-yl)-piperidin-1-yl]-phenyl}-2-aza-spiro[4.5]decan-1-one]
9 | 11.4 nM | C[C@H]1CCCN1C1CCN(c2ccc(N3CCC4(CCCCC4)C3=O)c(N)c2)CC1 [Example 4, 2-{2-Amino-4-[4-((S)-2-methyl-pyrrolidin-1-yl)-piperidin-1-yl]-phenyl}-2-aza-spiro[4.5]decan-1-one trifluoro-acetate]
10 | 10.6 nM | Cc1cc(N2CC[C@H](N3CCC[C@@H]3C)C2)ccc1N1CCC2(CCCCC2)C1=O [Example 8, 2-[2-Methyl-4-((2S,3′S)-2-methyl-[1,3]bipyrrolidinyl-1′-yl)-phenyl]-2-aza-spiro[4.5]decan-1-one]
11 | 2.65 nM | COc1cc(N2CC[C@H](N3CCC[C@@H]3C)C2)ccc1N1CCC2(CCCCC2)C1=O [Example 10]
